According to the supplement of paper PMC10307832:

Key:
Experiment in all cases: relative viability (nuclei count vs DMSO), 5 days (fraction); higher = more cells survive
[1] = compound: C1CC(C2=C(C1)C3=C(N2)C=CC(=C3)Cl)C(=O)N [Selisistat] + COc1cc2c(Oc3ccc(NC(=O)C4(C(=O)Nc5ccc(F)cc5)CC4)cc3F)ccnc2cc1OCCCN1CCOCC1 [Foretinib] (partner 0.25 µM)
Method in brief: (§1)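 Five library-drug doses in √10 steps were combined with a fixed anchor-drug dose, or a single drug was given alone, by pin tool to lung cancer cell lines in 1536-well plates the day after seeding. Nuclei were stained and counted after 5 days. Relative viability is the nuclei count in treated wells over that in vehicle wells, taken as the median of duplicate plates.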

[2] = compound: c1ccc2c(CCNc3ccc(Nc4ccncc4)cc3)c[nH]c2c1 [Serdemetan] + CC(=O)Nc1cccc(-n2c(=O)n(C3CC3)c(=O)c3c(Nc4ccc(I)cc4F)n(C)c(=O)c(C)c32)c1 [Trametinib] (partner 0.02 µM)
Method in brief: as §1

[3] = compound: C1CC(C2=C(C1)C3=C(N2)C=CC(=C3)Cl)C(=O)N [Selisistat] + O=C(CCCCCCC(=O)Nc1ccccc1)NO [Vorinostat] (partner 1 µM)
Method in brief: as §1

[4] = compound: c1ccc2c(CCNc3ccc(Nc4ccncc4)cc3)c[nH]c2c1 [Serdemetan] + CC1(C)CCC(c2ccc(Cl)cc2)=C(CN2CCN(c3ccc(C(=O)NS(=O)(=O)c4ccc(N[C@H](CCN5CCOCC5)CSc5ccccc5)c(S(=O)(=O)C(F)(F)F)c4)cc3)CC2)C1 [Navitoclax] (partner 0.5 µM)
Method in brief: as §1

Row | Cell Line | relative viability ([1]; first compound 0.4 µM) | relative viability ([1]; first compound 1.265 µM) | relative viability ([1]; first compound 4 µM) | relative viability ([1]; first compound 12.65 µM) | relative viability ([1]; first compound 40 µM) | relative viability ([2]; first compound 0.04 µM) | relative viability ([2]; first compound 0.1265 µM) | relative viability ([2]; first compound 0.4 µM) | relative viability ([2]; first compound 1.265 µM) | relative viability ([2]; first compound 4 µM) | relative viability ([3]; first compound 0.4 µM) | relative viability ([3]; first compound 1.265 µM) | relative viability ([3]; first compound 4 µM) | relative viability ([3]; first compound 12.65 µM) | relative viability ([3]; first compound 40 µM) | relative viability ([4]; first compound 0.04 µM) | relative viability ([4]; first compound 0.1265 µM) | relative viability ([4]; first compound 0.4 µM) | relative viability ([4]; first compound 1.265 µM) | relative viability ([4]; first compound 4 µM)
1 | LXF-289 | 1.03 | 1.02 | 0.868 | 0.947 | 0.997 | 0.638 | 0.624 | 0.652 | 0.621 | 0.503 | 0.78 | 0.83 | 0.753 | 0.799 | 0.961 | 0.931 | 0.927 | 0.884 | 0.759 | 0.749
2 | NCI-H23 | 0.579 | 0.779 | 0.805 | 0.935 | 0.565 | 0.354 | 0.399 | 0.426 |  | 0.363 | 0.647 | 0.597 |  | 0.663 | 0.802 | 0.887 | 0.848 | 0.996 | 0.809 | 0.623
3 | NCI-H322M | 0.953 | 1.01 | 0.884 | 1.13 | 1.11 | 0.502 | 0.528 | 0.488 | 0.427 | 0.431 | 0.857 | 0.921 |  | 0.893 | 1.02 | 1.05 | 1.21 | 1.12 | 1.43 | 1.06
4 | NCI-H441 | 0.936 | 1.12 | 0.961 | 0.951 | 0.817 | 0.462 | 0.508 | 0.436 | 0.435 | 0.414 | 0.851 | 0.723 | 0.805 | 0.666 | 1 | 0.424 | 0.654 | 0.87 | 0.87 | 0.317
5 | NCI-H460 | 1.01 | 0.969 | 0.967 | 1.01 | 1.05 | 0.0926 | 0.172 | 0.134 | 0.0472 | 0.0554 | 0.691 | 0.772 | 0.808 | 0.723 | 0.807 | 1.03 | 1.04 | 1.13 | 0.303 | 0.0983
6 | NCI-H520 | 0.691 | 0.699 | 0.715 | 0.801 | 0.746 | 0.632 | 0.65 | 0.623 | 0.57 | 0.428 | 0.722 | 0.705 | 0.814 | 0.592 | 0.794 | 1 | 1.09 | 1.07 | 0.762 | 0.924
7 | NCI-H596 | 1.09 | 0.693 | 0.846 | 0.89 | 0.585 | 0.894 | 0.883 | 0.618 | 0.526 | 0.517 | 0.698 | 0.609 | 0.521 | 0.75 | 0.773 | 0.967 | 0.922 | 0.741 | 0.465 | 0.34
8 | NCI-H647 | 1.18 | 1.13 | 1.19 | 1.16 | 1.25 | 0.482 | 0.475 | 0.558 | 0.361 | 0.304 | 0.567 | 0.604 | 0.777 | 0.639 | 0.766 | 1.06 | 1.14 | 1.06 | 0.844 | 0.83
9 | NCI-H727 | 0.883 | 1.05 |  | 1.04 | 0.872 | 0.376 | 0.37 | 0.367 | 0.382 | 0.33 | 1.31 | 1.15 | 0.658 | 1.2 | 1.16 | 0.511 | 0.354 | 0.391 | 0.231 | 0.226
10 | NCI-H838 | 1.03 | 1.03 | 0.957 | 1.07 | 0.962 | 0.47 | 0.538 | 0.555 | 0.526 | 0.575 | 0.721 | 0.806 | 0.81 | 0.764 | 0.773 | 1.11 | 1.14 | 1.08 | 1.12 | 1.32
11 | NCI-H1355 | 0.933 | 0.991 | 0.955 | 0.99 | 0.993 | 0.411 | 0.478 | 0.367 | 0.394 | 0.374 | 0.686 | 0.696 | 0.704 | 0.719 | 0.798 | 1.01 | 0.863 | 0.944 | 0.915 | 0.78
12 | NCI-H1395 | 1.01 | 0.993 | 0.909 | 1.03 | 0.878 | 0.982 | 0.954 | 0.972 | 0.904 | 0.586 | 0.827 | 0.671 |  | 0.536 | 0.702 | 0.976 | 1.07 | 1.08 | 0.923 | 0.815
13 | NCI-H1437 | 1.29 | 1.21 | 1.33 | 1.06 | 1 | 0.466 | 0.527 | 0.526 | 0.372 | 0.424 | 0.875 | 0.837 | 0.886 | 0.876 | 0.74 | 1.06 | 1.01 | 0.99 | 0.98 | 0.754
14 | NCI-H1650 | 1.11 | 1.03 | 1.02 | 0.999 | 1.18 | 0.58 | 0.633 | 0.49 | 0.611 | 0.516 | 0.578 | 0.533 | 0.704 | 0.726 | 0.67 | 1.02 | 1.19 | 1.19 | 1.18 | 0.722
15 | NCI-H1651 | 0.785 | 0.693 | 0.864 | 0.897 | 0.739 | 0.848 | 0.784 | 0.775 | 0.433 | 0.256 | 0.625 | 0.672 | 0.552 | 0.638 | 0.622 | 0.826 | 0.808 | 0.557 | 0.256 | 0.226
16 | NCI-H1666 | 0.993 | 0.993 | 0.927 | 0.943 | 0.858 | 0.887 | 0.854 | 0.836 |  | 0.672 | 1.09 | 1.13 | 1.11 | 1.13 | 1.17 | 0.913 | 0.941 | 0.877 | 0.726 | 0.83
